Data on one compound can be found in US20080188449A1, “Treatment of Conditions Caused By Calcium Abnormalities” (priority 2004, published 2008).

Data set [1] relates to NFκB transactivation. Briefly: κB-luciferase reporter assay (TNF-α induced). In kind it is cell-based. The note with it: 10 nM triptolide+TNF-α, after 24 hours.
Data set [2] relates to HeLa cells. Briefly: [^3H]-triptolide competition binding in HeLa cells. The following applies: 1 or 10 μM competitor one hour before [^3H]-triptolide, HeLa cells. Here is the method: To gain insight into triptolide's mechanism of action Applicants sought to determine its specific binding activity utilizing a system employing [^3H]-triptolide. In addition to competition with 1 μM or 10 μM unlabeled triptolide, Applicants also measured the binding affinities of triptolide analogs (FIG. 1A). These analogs have been previously described and differ structurally from triptolide in the hydrolysis of the 12,13 epoxide (2), and formation of the ketone at the C-14 hydroxyl (3) (FIG. 1A). […] The effective interaction of these analogs with a presumed triptolide binding entity led us to their use in subsequent experiments addressing the mode of triptolide's biological functions.
To address first the nature of triptolide binding within the cell, Applicants determined this interaction was reversible as [^3H]-triptolide labeling was out competed by subsequent addition of excess unlabeled triptolide (FIG. 2A). […] Although 25% of the total cellular counts (i.e., representing bound triptolide) were found in the cytosolic fraction, it is uncertain whether this is specific binding or simply that free triptolide had dissociated from its binding protein due to experimental manipulation during fractionation. Since the data thus far had only shown binding within whole cells, Applicants next determined if this triptolide binding protein could be further characterized and/or enriched by its association with chromatographic reagents. HeLa cells were once again labeled with [^3H]-triptolide and total cell lysates were then passed over the anion exchange resin DEAE. Batch elutions with increasing NaCl concentrations were used to disassociate interactions of variable charge. […] Importantly, Applicants also observed that [^3H]-triptolide would only bind to intact cells in culture but would not bind to any component of a total cellular lysate as assessed by interaction with the DEAE resin. Negative results for a triptolide binding interaction were also observed with DNA-cellulose and the cation exchange resin SPFF (sulphopropyl).
Labeling studies were performed by the addition of approximately 30 nM [^3H]-triptolide directly into the culture media for one hour at 37° C. For cold competition studies, 1 μM triptolide was incubated with the cells for one hour before or after the addition of [^3H]-triptolide. Triptolide analog studies followed a similar protocol where concentrations used for competition were either 1 or 10 μM added before [^3H]-triptolide. Medium was removed and cells were washed 3× in cold PBS. Total cell lysates were prepared (150 mM NaCl, 50 mM Tris-HCl pH 7.4, 1 mM EDTA, 1% Triton X-100, and Complete protease inhibitors (Roche)) and protein was quantitated before measuring the [^3H]-triptolide binding activity via liquid scintillation.

Data set [3] relates to HeLa cells. Briefly: Viability of parvalbumin-GFP transfected HeLa cells. The class given is cell-based. The following applies: 100 nM. The source says: To investigate further the role of calcium in triptolide function Applicants utilized a system to buffer intracellular calcium levels. Various GFP-parvalbumin (PV) fusion proteins can be specifically localized to either the nucleus or the cytoplasm through a nuclear localization or exclusion signal (NLS or NES, respectively) (Pusl, et al., 2002, J Biol Chem 277, 27517-27527). Parvalbumin has two EF-hand calcium binding domains and can efficiently reduce the availability of free calcium in the cell (Pauls, et al., 1996, Biochim Biophys Acta 1306, 39-54). HeLa cells were transiently transfected with the GFP vector control, NES-PV-GFP, or NLS-PV-GFP in calcium containing media and efficient expression of each construct was determined by GFP localization (FIG. 4A). Normal cell growth was first assessed throughout 48 hours with each of the constructs. […] For triptolide experiments, cells were transfected and allowed to express the construct for 24 hours before the addition of 100 nM triptolide. After 24 and 48 hours of treatment, cells were assessed for viability. […]
All parvalbumin-GFP constructs and control vectors (Pusl, et al., 2002, J Biol Chem 277, 27517-27527) were a gift of Anton Bennett (Yale University). […] Cell viability was assessed at 24 and 48 hours post triptolide addition by morphology and trypan blue dye exclusion.

The compound `CC(C)[C@]12O[C@H]1[C@@H]1O[C@]13[C@]1(O[C@H]1C[C@H]1C4=C(CC[C@@]13C)C(=O)OC4)[C@@H]2O` [triptolide, Triptolide] displayed a luciferase activity induction in data set [1] of over 20 fold. The “displacement of [^3H]-triptolide binding” value in data set [2] is on record as “significantly competed”. Moreover, the cell death result in data set [3] (all transfection conditions, 48 hours) is listed as “complete cell death”. Also, in data set [3] (control GFP vector or NLS-PV-GFP, 24 hours), the “cells rounded and no longer viable” value was 50%.
